BindingDB's records for patent US20240317745 (Humanwell Pharmaceutical US, 2024)

Biological target: Sigma non-opioid intracellular receptor 1 (Cavia porcellus, UniProt Q60492)
Assay: Binding Affinity Assay
Method: An appropriate amount of homogenization buffer was added to the prepared membrane, and was dispersed into a suspension using a homogenizer, protein concentration was measured to be 4 mg/ml. 100 micrograms of protein were added to each well of a 96-well plate, with a volume of 90 μl. […] [3H]-(+)-pentazocine (Perkin-Elmer, Cat #NET1056250UC) was added to each well (final concentration of 10 nM). The 96-well plate was incubated in a constant temperature water bath (25° C., 180 minutes). […] After washing, the samples were dried in a 37° C. oven.

Sequence of Sigma non-opioid intracellular receptor 1 (Q60492 whole entry): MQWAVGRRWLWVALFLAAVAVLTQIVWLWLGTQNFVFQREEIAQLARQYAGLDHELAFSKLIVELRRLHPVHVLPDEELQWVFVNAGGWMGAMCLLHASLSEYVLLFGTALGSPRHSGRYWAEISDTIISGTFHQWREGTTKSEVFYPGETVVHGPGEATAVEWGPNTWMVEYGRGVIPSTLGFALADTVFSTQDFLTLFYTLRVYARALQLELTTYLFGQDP

Ki	SMILES
308 nM	OC1CCN(Cc2cc(-c3ccc(F)c(F)c3)no2)CC1 [US20240317745, Compound 37]
80.3 nM	Fc1ccc(-c2cc(COCCN3CCOCC3)on2)cc1F [US20240317745, Compound 1]
39.6 nM	OC1CCN(CCOCc2cc(-c3ccc(Cl)c(Cl)c3)no2)CC1 [US20240317745, Compound 65]
84.4 nM	Clc1ccc(-c2noc(COCCN3CCOCC3)c2Br)cc1Cl [US20240317745, Compound 74]
